Data taken from patent EP2664616A1, “Hydantoin and thiohydantoin derivatives as antiviral drugs” (priority 2012, dated 2013).
pEC50: −log10 of the molar value.

Each molecule was assayed on HCV replicon Luc Neo ET (assay: HCV replication inhibition assay (replicon assay, luciferase reporter)). Conditions: Hepatitis C virus; Huh-7 cell lines containing HCV replicon Luc Neo ET; 72 hours with compound; 1 % DMSO; firefly luciferase reporter; concentration that produces 50 % of replication inhibition; read-out: EC50 Replicon LucneoET.
Format: cell-based
Description: The compounds according to the present invention were tested for their ability to inhibit HCV replication as follows:
Huh-7 cell lines containing HCV replicon Luc Neo ET (Reblikon) were maintained in DMEM supplemented with 10% SVF, 2 mM glutamine, and 1 X NEAA, 100 U / ml penicillin, and 100 µg / ml streptomycine. Cells were maintained in medium supplemented with 0.5 mg/ml G418, at 37°C and 5% CO2 in a humidified atmosphere. Cells were dissociated at sub confluence with trypsin EDTA 1X.
Replicon Luc Neo ET is bicistronic expression constructs (Lohmann et al, 1999, Science 285, 110-113). In brief, the structural genes of the HCV genome were replaced by heterologous sequences; the gene encoding the neomycin phosphotransferase (NPT) and the internal ribosome entry site (IRES) of the encephalomyocarditis virus (EMCV). The bicistronic construct is therefore composed of the following elements: HCV-IRES nucleotides 1-389 for Luc Neo ET, the NPT gene, the EMCV-IRES directing translation of downstream HCV sequences from NS2 or NS3 up to the authentic 3' end of the genome. HCV Polyprotein of Luc Neo ET replicon harbours the cell culture adaptive mutations E1202G, T1280I, K1846T. G418-resistance is only possible with cells containing high amounts of replicon.
Cells were dissociated the day before addition of compounds and seeded in 96 well-plates at a final concentration of 27 777.77 cells.ml^-1.cm^-2 in 90µl final volume of culture medium per well and were maintained at 37°C and 5% CO2 in a humidified atmosphere for 24 hours. 10 µl of compounds to be tested were added 24 hours after seeding. Final concentration of DMSO was 1 %. Cells were incubated in the presence of compounds for 72 hours after which expression of firefly luciferase reporter gene was quantified. Briefly, culture medium was removed and cells were lysed by addition of 100 µl of lysis buffer containing 125 mM Tris Phosphate ph 7.8, 10 mM EDTA, 5 mM DTT, 50 % glycerol and 5 % Triton. Plates were vortexed 10 min at 1300 rpm. 100µl of luciferin solution 1X were added to each well. Luciferin solution contained 40 mM Tris Phosphate ph 7.8, 0.2 mM EDTA, 67 mM DTT, 2.14 mM MgCl2, 5.4 mM MgSO4, 4.7 x 10^-4 M luciferin, 5.3 x 10^-4 M ATP and 2.7 x 10^-4 M Acetyl co enzyme A. Luminescence was immediately measured with Berthold Microlumat Plus LB 96V luminometer with an integration of 1 sec. Inhibition was calculated using the formula: % inhibition = 1-[(RLUsample-RLUbackground)/(RLUsignal-RLUbackground)].
The Table 1 below illustrates data on the biological activity of compounds of the present invention. Results are expressed as EC50 which is the concentration that produces 50 % of replication inhibition. Table 1. HCV replication inhibition assay

With `CN(C)c1ccc(NC(=O)CC2C(=O)N(c3ccc(F)cc3)C(=S)N2CCc2cccs2)cc1` (stereo not shown) [Example 48, N-[4-(dimethylamino)phenyl]-2-[1-(4-fluorophenyl)-5-oxo-2-sulfanylidene-3-[2-(thiophen-2-yl)ethyl]imidazolidin-4-yl]acetamide] as the molecule, how does the pEC50 read?
Its pEC50 is over 6.30.

How did the pEC50 turn out when `CN(C)c1ccc(CCN2C(=O)N(c3ccc(F)cc3)C(=O)C2CC(=O)Nc2ccc(N(C)C)cc2)cc1` (stereo not shown) [Example 49, N-[4-(dimethylamino)phenyl]-2-(3-{2-[4-(dimethylamino)phenyl]ethyl}-1-(4-fluorophenyl)-2,5-dioxoimidazolidin-4-yl)acetamide] was run?
Its pEC50 is over 6.30.

How did the pEC50 turn out when `COc1ccc(CCN2C(=S)N(c3ccccc3)C(=O)C2CC(=O)Nc2ccc(N(C)C)cc2)cc1` (stereo not shown) [Example 51, N-[4-(dimethylamino)phenyl]-2-{3-[2-(4-methoxyphenyl)ethyl]-5-oxo-1-phenyl-2-sulfanylideneimidazolidin-4-yl}acetamide] was run?
Its pEC50 is over 6.30.

With `COc1ccc(NC(=O)CC2C(=O)N(c3ccc(F)cc3)C(=S)N2CCc2ccc(N3CCOCC3)cc2)cc1` (stereo not shown) [Example 52, 2-[1-(4-fluorophenyl)-3-{2-[4-(morpholin-4-yl)phenyl]ethyl}-5-oxo-2-sulfanylideneimidazolidin-4-yl]-N-(4-methoxyphenyl)acetamide] as the molecule, how does the pEC50 read?
The pEC50 was over 6.30.

How did the pEC50 turn out when `COCCOc1ccc(NC(=O)CC2C(=O)N(c3ccc(F)cc3)C(=S)N2CCc2ccc(OC)cc2)cc1` (stereo not shown) [Example 53, 2-[1-(4-fluorophenyl)-3-[2-(4-methoxyphenyl)ethyl]-5-oxo-2-sulfanylideneimidazolidin-4-yl]-N-[4-(2-methoxyethoxy)phenyl]acetamide] was run?
Its pEC50 is over 6.30.

How did the pEC50 turn out when `COc1ccc(CCN2C(=S)N(c3ccc(F)cc3)C(=O)C2CC(=O)Nc2ccc(OC(C)C)cc2)cc1` (stereo not shown) [Example 54, 2-[1-(4-fluorophenyl)-3-[2-(4-methoxyphenyl)ethyl]-5-oxo-2-sulfanylideneimidazolidin-4-yl]-N-[4-(propan-2-yloxy)phenyl]acetamide] was run?
The pEC50 was over 6.30.

`COc1ccc(CCN2C(=S)N(c3ccncc3)C(=O)C2CC(=O)Nc2ccc(OC)cc2)cc1` (stereo not shown) [Example 55, N-(4-methoxyphenyl)-2-{3-[2-(4-methoxyphenyl)ethyl]-5-oxo-1-(pyridin-4-yl)-2-sulfanylideneimidazolidin-4-yl}acetamide] was tested. Which pEC50 did it give?
Its pEC50 is over 5.30.

How did the pEC50 turn out when `O=C(CC1C(=O)N(c2ccccc2)C(=S)N1CCc1ccc(Cl)cc1)Nc1ccccn1` (stereo not shown) [Example 57, 2-{3-[2-(4-chlorophenyl)ethyl]-5-oxo-1-phenyl-2-sulfanylideneimidazolidin-4-yl}-N-(pyridin-2-yl)acetamide] was run?
The pEC50 was over 6.30.

With `COc1ccc(NC(=O)CC2C(=O)N(c3ccccc3)C(=S)N2CCc2ccc(Cl)cc2)cn1` (stereo not shown) [Example 59, 2-{3-[2-(4-chlorophenyl)ethyl]-5-oxo-1-phenyl-2-sulfanylideneimidazolidin-4-yl}-N-(6-methoxypyridin-3-yl)acetamide] as the molecule, how does the pEC50 read?
Its pEC50 is over 5.30.

How did the pEC50 turn out when `COc1ccc(NC(=O)CC2C(=O)N(c3ccccc3)C(=S)N2CCc2ccc(Cl)cc2)nc1` (stereo not shown) [Example 61, 2-{3-[2-(4-chlorophenyl)ethyl]-5-oxo-1-phenyl-2-sulfanylideneimidazolidin-4-yl}-N-(5-methoxypyridin-2-yl)acetamide] was run?
Its pEC50 is over 6.30.

How did the pEC50 turn out when `O=C(CC1C(=O)N(c2ccccc2)C(=S)N1CCc1ccc(Cl)cc1)Nc1ccon1` (stereo not shown) [Example 64, 2-{3-[2-(4-chlorophenyl)ethyl]-5-oxo-1-phenyl-2-sulfanylideneimidazolidin-4-yl}-N-(1,2-oxazol-3-yl)acetamide] was run?
The pEC50 was over 5.30.

With `COc1ccc(NC(=O)CC2C(=O)N(c3ccc(F)cc3)C(=S)N2CCc2ccc(Cl)cc2)nc1` (stereo not shown) [Example 66, 2-{3-[2-(4-chlorophenyl)ethyl]-1-(4-fluorophenyl)-5-oxo-2-sulfanylideneimidazolidin-4-yl}-N-(5-methoxypyridin-2-yl)acetamide] as the molecule, how does the pEC50 read?
Its pEC50 is over 6.30.

With `COc1ccc(CCN2C(=S)N(c3ccccc3)C(=O)C2CC(=O)Nc2ccc(C)nn2)cc1` (stereo not shown) [Example 68, 2-{3-[2-(4-methoxyphenyl)ethyl]-5-oxo-1-phenyl-2-sulfanylideneimidazolidin-4-yl}-N-(6-methylpyridazin-3-yl)acetamide] as the molecule, how does the pEC50 read?
Its pEC50 is over 4.52.

With `COc1ccc(CCN2C(=S)N(c3ccccc3)C(=O)C2CC(=O)Nc2ccc(OC)nn2)cc1` (stereo not shown) [Example 69, 2-{3-[2-(4-methoxyphenyl)ethyl]-5-oxo-1-phenyl-2-sulfanylideneimidazolidin-4-yl}-N-(6-methoxypyridazin-3-yl)acetamide] as the molecule, how does the pEC50 read?
The pEC50 was over 5.30.

`COc1ccc(CCN2C(=O)N(c3ccc(F)cc3)C(=O)C2CC(=O)Nc2ccc(OC)nn2)cc1` (stereo not shown) [Example 71, 2-[1-(4-fluorophenyl)-3-[2-(4-methoxyphenyl)ethyl]-2,5-dioxoimidazolidin-4-yl]-N-(6-methoxypyridazin-3-yl)acetamide] was tested. Which pEC50 did it give?
Its pEC50 is over 4.52.

With `COc1ccc(CCN2C(=O)N(c3ccc(F)cc3)C(=O)C2CC(=O)Nc2ccc(OC)cn2)cc1` (stereo not shown) [Example 72, 2-[1-(4-fluorophenyl)-3-[2-(4-methoxyphenyl)ethyl]-2,5-dioxoimidazolidin-4-yl]-N-(5-methoxypyridin-2-yl)acetamide] as the molecule, how does the pEC50 read?
Its pEC50 is over 5.30.

How did the pEC50 turn out when `COc1ccc(CCN2C(=O)N(c3ccc(F)cc3)C(=O)C2CC(=O)Nc2ccc(N(C)C)cn2)cc1` (stereo not shown) [Example 73, N-[5-(dimethylamino)pyridin-2-yl]-2-[1-(4-fluorophenyl)-3-[2-(4-methoxyphenyl)ethyl]-2,5-dioxoimidazolidin-4-yl]acetamide] was run?
Its pEC50 is over 6.30.

`COc1ccc(CCN2C(=O)N(c3ccc(F)cc3)C(=O)C2CC(=O)Nc2ccc(C)nn2)cc1` (stereo not shown) [Example 74, 2-[1-(4-fluorophenyl)-3-[2-(4-methoxyphenyl)ethyl]-2,5-dioxoimidazolidin-4-yl]-N-(6-methylpyridazin-3-yl)acetamide] was tested. Which pEC50 did it give?
Its pEC50 is over 4.52.

How did the pEC50 turn out when `COc1ncc(NC(=O)CC2C(=O)N(c3ccc(F)cc3)C(=O)N2CCc2ccc(N(C)C)cc2)cn1` (stereo not shown) [Example 78, 2-(3-{2-[4-(dimethylamino)phenyl]ethyl}-1-(4-fluorophenyl)-2,5-dioxoimidazolidin-4-yl)-N-(2-methoxypyrimidin-5-yl)acetamide] was run?
Its pEC50 is over 4.52.

`COc1ncc(NC(=O)CC2C(=O)N(c3ccc(F)cc3)C(=S)N2CCc2ccc(N(C)C)cc2)cn1` (stereo not shown) [Example 79, 2-(3-{2-[4-(dimethylamino)phenyl]ethyl}-1-(4-fluorophenyl)-5-oxo-2-sulfanylideneimidazolidin-4-yl)-N-(2-methoxypyrimidin-5-yl)acetamide] was tested. Which pEC50 did it give?
Its pEC50 is over 5.30.

With `COc1ccc(CCN2C(=S)N(c3ccc(F)cc3)C(=O)C2CC(=O)Nc2cnc(OC)nc2)cc1` (stereo not shown) [Example 82, 2-[1-(4-fluorophenyl)-3-[2-(4-methoxyphenyl)ethyl]-5-oxo-2-sulfanylideneimidazolidin-4-yl]-N-(2-methoxypyrimidin-5-yl)acetamide] as the molecule, how does the pEC50 read?
The pEC50 was over 5.30.

`COc1ccc(CCN2C(=S)N(c3ccc(F)cc3)C(=O)C2CC(=O)Nc2ccc(OC)cn2)cc1` (stereo not shown) [Example 83, 2-[1-(4-fluorophenyl)-3-[2-(4-methoxyphenyl)ethyl]-5-oxo-2-sulfanylideneimidazolidin-4-yl]-N-(5-methoxypyridin-2-yl)acetamide] was tested. Which pEC50 did it give?
The pEC50 was over 6.30.

How did the pEC50 turn out when `COc1ccc(CCN2C(=S)N(c3ccc(F)cc3)C(=O)C2CC(=O)Nc2ncc(OC)cn2)cc1` (stereo not shown) [Example 84, 2-[1-(4-fluorophenyl)-3-[2-(4-methoxyphenyl)ethyl]-5-oxo-2-sulfanylideneimidazolidin-4-yl]-N-(5-methoxypyrimidin-2-yl)acetamide] was run?
Its pEC50 is over 6.30.

With `COc1ccc(CCN2C(=S)N(c3ccc(F)cc3)C(=O)C2CC(=O)Nc2ccc(OC)cc2F)cc1` (stereo not shown) [Example 85, N-(2-fluoro-4-methoxyphenyl)-2-[1-(4-fluorophenyl)-3-[2-(4-methoxyphenyl)ethyl]-5-oxo-2-sulfanylideneimidazolidin-4-yl]acetamide] as the molecule, how does the pEC50 read?
Its pEC50 is over 6.30.

How did the pEC50 turn out when `COc1ccc(CCN2C(=S)N(c3ccc(F)cc3)C(=O)C2CC(=O)Oc2ccc(OC)cc2)cc1` (stereo not shown) [Example 86, 4-methoxyphenyl 2-[1-(4-fluorophenyl)-3-[2-(4-methoxyphenyl)ethyl]-5-oxo-2-sulfanylideneimidazolidin-4-yl]acetate] was run?
The pEC50 was over 4.52.
